From US8962648B2, “Tricyclic compounds and PBK inhibitors containing the same” (OncoTherapy Science, Inc., priority 2010, dated 2015)
Counter-ions that a name gives are not always drawn. Like-named read-outs stand apart in the source and are kept apart here.

Tests used:
[1] = test system: HT-1197 cells; assay: Cell-based assay, cellular growth (Cell Counting Kit-8, 72 hours), PBK-negative control cells; settings: Homo sapiens, HT1197, 72 h
Procedure: (§1) 100 micro-L of cell suspension was seeded onto 96-well microtiter plate (ViewPlate-96FTC, PerkinElmer). […] Cellular growth was determined using Cell Counting Kit-8 (DOJINDO) at 72 hours after the exposure of the candidate inhibitors. […] Accurate IC50 values were calculated as described previously.

[2] = test system: T47D cells; assay: Cell-based assay, cellular growth (Cell Counting Kit-8, 72 hours); settings: Homo sapiens, T47D, 72 h
Procedure: as §1

[3] = test system: A549 cells; assay: as above; settings: Homo sapiens, A549, 72 h
Procedure: as §1

[4] = test system: BT-549 cells; assay: as above; settings: Homo sapiens, BT549 cells
Procedure: as §1

[5] = biological target: PBK (Homo sapiens (Human), UniProt Q96KB5); assay: Kinase assay (IMAP fluorescence polarization, FITC-labeled histone H3 peptide); format: biochemical
Chain of PBK (Q96KB5 whole entry): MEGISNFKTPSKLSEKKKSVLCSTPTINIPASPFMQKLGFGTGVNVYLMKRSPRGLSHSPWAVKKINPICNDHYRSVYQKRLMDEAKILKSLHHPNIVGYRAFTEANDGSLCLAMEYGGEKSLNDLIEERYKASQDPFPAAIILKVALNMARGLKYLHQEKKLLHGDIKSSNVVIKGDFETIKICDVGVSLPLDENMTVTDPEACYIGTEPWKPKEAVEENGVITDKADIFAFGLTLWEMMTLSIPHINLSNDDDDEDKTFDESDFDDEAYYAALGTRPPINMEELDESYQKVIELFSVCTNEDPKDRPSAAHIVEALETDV
Procedure: PBK activity was determined in the presence or absence of compounds using fluorescein isothiocyanate-labeled (FITC-labeled) histone H3 peptide as a substrate. […] The serially diluted compounds, 0.8 ng/micro-L PBK (Carna Biosciences) and 100 nM FITC-labeled histone H3 peptide were reacted in a reaction buffer (20 mM HEPES, 0.01% Tween-20, 0.3 mM MgCl2, 2 mM dithiothreitol, 50 micro-M ATP, pH 7.4) at room temperature for 1 hour. The reaction was stopped by the addition of three fold assay volume of progressive binding solution. […] IC50 values were calculated by nonlinear four parameter fit using SigmaPlot, version 10.0 (Systat Software, Inc.).

[6] = PBK 0.8 ng/micro-L, 50 micro-M ATP, 100 nM FITC-labeled histone H3 peptide, room temperature 1 hour

SMILES | IC50 [2] [nM] | IC50 [3] [nM] | IC50 [4] [nM] | IC50 [5, 6] [nM] | IC50 [1] [nM] | IC50 [5] [nM]
Cc1cc(O)c(-c2ccc(CCN)cc2)c2c1[nH]c(=O)c1sccc12 [Compound 1191, 9-(4-(2-aminoethyl)phenyl)-8-hydroxy-6-methylthieno[2,3-c]quinolin-4(5H)-one hydrochloride] | 73 | 120 | 64 | 19 | 480 | –
Cc1cc(O)c(-c2ccc(C(C)CN(C)C)c(F)c2)c2c1[nH]c(=O)c1sccc12 (stereo not drawn) [Compound 1193, 9-(4-(1-(dimethylamino)propan-2-yl)-3-fluorophenyl)-8-hydroxy-6-methylthieno[2,3-c]quinolin-4(5H)-one hydrochloride] | 240 | 130 | 140 | – | 330 | 46
COc1cc(Cl)c2[nH]c(=O)c3sccc3c2c1-c1ccc([C@@H](C)CN)cc1 [Compound 1201, (R)-9-(4-(1-aminopropan-2-yl)phenyl)-6-chloro-8-methoxythieno[2,3-c]quinolin-4(5H)-one hydrochloride] | 120 | 46 | 53 | 20 | 140 | –
CC(CCl)NS(=O)(=O)c1ccc(-c2c(O)ccc3[nH]c(=O)c4sccc4c23)cc1 (stereo not drawn) [Compound 1204, N-(1-chloropropan-2-yl)-4-(8-hydroxy-4-oxo-4,5-dihydrothieno[2,3-c]quinolin-9-yl)benzenesulfonamide] | 1900 | 710 | 160 | 15 | 15000 | –
Cc1cc(O)c(-c2ccc(CCC#N)cc2)c2c1[nH]c(=O)c1sccc12 [Compound 1226, 3-(4-(8-hydroxy-6-methyl-4-oxo-4,5-dihydrothieno[2,3-c]quinolin-9-yl)phenyl)propanenitrile] | 1200 | 490 | 590 | 92 | 1300 | –
Cc1cc(O)c(-c2ccc(C(C)(C)CN)cc2)c2c1[nH]c(=O)c1sccc12 [Compound 1228, 9-(4-(1-amino-2-methylpropan-2-yl)phenyl)-8-hydroxy-6-methylthieno[2,3-c]quinolin-4(5H)-one hydrochloride] | 330 | 160 | 150 | 39 | 810 | –
NCC(c1ccc(-c2c(O)ccc3[nH]c(=O)c4sccc4c23)cc1)C1CCCC1 (stereo not drawn) [Compound 1236, 9-(4-(2-amino-1-cyclopentylethyl)phenyl)-8-hydroxythieno[2,3-c]quinolin-4(5H)-one] | 800 | 460 | 510 | 4.6 | 1000 | –
COc1ccc2[nH]c(=O)c3sccc3c2c1-c1ccc(C(CN)C2CCCC2)cc1 (stereo not drawn) [Compound 1239, 9-(4-(2-amino-1-cyclopentylethyl)phenyl)-8-methoxythieno[2,3-c]quinolin-4(5H)-one hydrochloride] | 1100 | 890 | 1500 | – | 1700 | 23
Cc1cc(O)c(-c2ccc(CC(C)N)cc2)c2c1[nH]c(=O)c1sccc12 (stereo not drawn) [Compound 1242, 9-(4-(2-aminopropyl)phenyl)-8-hydroxy-6-methylthieno[2,3-c]quinolin-4(5H)-one hydrochloride] | 150 | 120 | 110 | – | 420 | 37
CC(C)C(CN)c1ccc(-c2c(O)ccc3[nH]c(=O)c4sccc4c23)cc1 (stereo not drawn) [Compound 1252, 9-(4-(1-amino-3-methylbutan-2-yl)phenyl)-8-hydroxythieno[2,3-c]quinolin-4(5H)-one] | 210 | 160 | 250 | 1.4 | 420 | –
COc1ccc2[nH]c(=O)c3sccc3c2c1-c1ccc(C(CN)C(C)C)cc1 (stereo not drawn) [Compound 1253, 9-(4-(1-amino-3-methylbutan-2-yl)phenyl)-8-methoxythieno[2,3-c]quinolin-4(5H)-one hydrochloride] | 870 | 760 | 1500 | – | 1900 | 4.1
COc1cc(C)c2[nH]c(=O)c3sccc3c2c1-c1ccc(C(C)CN)c(F)c1 (stereo not drawn) [Compound 1273, 9-(4-(1-aminopropan-2-yl)-3-fluorophenyl)-8-methoxy-6-methylthieno[2,3-c]quinolin-4(5H)-one hydrochloride] | 170 | 71 | 73 | – | 200 | 40
Cc1cc(O)c(-c2ccc(C(CN)C(C)C)cc2)c2c1[nH]c(=O)c1sccc12 (stereo not drawn) [Compound 1274, 9-(4-(1-amino-3-methylbutan-2-yl)phenyl)-8-hydroxy-6-methylthieno[2,3-c]quinolin-4(5H)-one] | 98 | 45 | 66 | 18 | 180 | –
CNCC(c1ccc(-c2c(O)cc(C)c3[nH]c(=O)c4sccc4c23)cc1)C(C)C (stereo not drawn) [Compound 1285, 8-hydroxy-6-methyl-9-(4-(3-methyl-1-(methylamino)butan-2-yl)phenyl)thieno[2,3-c]quinolin-4(5H)-one] | 210 | 230 | 110 | 50 | 280 | –
CNCC(C)c1ccc(-c2c(OC)cc(C)c3[nH]c(=O)c4sccc4c23)cc1F (stereo not drawn) [Compound 1286, 9-(3-fluoro-4-(1-(methylamino)propan-2-yl)phenyl)-8-methoxy-6-methylthieno[2,3-c]quinolin-4(5H)-one hydrochloride] | 220 | 95 | 93 | – | 220 | 43
CNCC(C)c1ccc(-c2c(O)cc(C)c3[nH]c(=O)c4sccc4c23)cc1F (stereo not drawn) [Compound 1293, 9-(3-fluoro-4-(1-(methylamino)propan-2-yl)phenyl)-8-hydroxy-6-methylthieno[2,3-c]quinolin-4(5H)-one] | 52 | 35 | 32 | 8.9 | 190 | –
CNCC(c1ccc(-c2c(O)cc(C)c3[nH]c(=O)c4sccc4c23)cc1F)C(C)C (stereo not drawn) [Compound 1294, 9-(3-fluoro-4-(3-methyl-1-(methylamino)butan-2-yl)phenyl)-8-hydroxy-6-methylthieno[2,3-c]quinolin-4(5H)-one] | 180 | 78 | 85 | 17 | 340 | –

Further lines, with some results ahead:

IC50 [2] [nM] | IC50 [3] [nM] | IC50 [4] [nM] | IC50 [5, 6] [nM] | SMILES | IC50 [1] [nM] | IC50 [5] [nM]
19 | 21 | 15 | 5.1 | Cc1cc(O)c(-c2ccc(C(C)CN)c(F)c2)c2c1[nH]c(=O)c1sccc12 (stereo not drawn) [Compound 1190, 9-(4-(1-aminopropan-2-yl)-3-fluorophenyl)-8-hydroxy-6-methylthieno[2,3-c]quinolin-4(5H)-one hydrochloride] | 110 | –
380 | 360 | 230 | 19 | NCCc1ccc(-c2c(O)cc(Br)c3[nH]c(=O)c4sccc4c23)cc1F [Compound 1213, 9-(4-(2-aminoethyl)-3-fluorophenyl)-6-bromo-8-hydroxythieno[2,3-c]quinolin-4(5H)-one hydrochloride] | 1700 | –
460 | 280 | 210 | 57 | COc1cc(C)c2[nH]c(=O)c3sccc3c2c1-c1ccc(CCN)c(F)c1 [Compound 1216, 9-(4-(2-aminoethyl)-3-fluorophenyl)-8-methoxy-6-methylthieno[2,3-c]quinolin-4(5H)-one hydrochloride] | 640 | –
84 | 140 | 65 | 4.7 | Cc1cc(O)c(-c2ccc(CCN)c(F)c2)c2c1[nH]c(=O)c1sccc12 [Compound 1217, 9-(4-(2-aminoethyl)-3-fluorophenyl)-8-hydroxy-6-methylthieno[2,3-c]quinolin-4(5H)-one hydrochloride] | 480 | –
180 | 170 | 100 | 5.5 | NCCc1ccc(-c2c(O)cc(Cl)c3[nH]c(=O)c4sccc4c23)cc1F [Compound 1219, 9-(4-(2-aminoethyl)-3-fluorophenyl)-6-chloro-8-hydroxythieno[2,3-c]quinolin-4(5H)-one hydrochloride] | 880 | –
560 | 560 | 250 | 47 | COc1cc(C)c2[nH]c(=O)c3sccc3c2c1-c1ccc(C(CN)C(C)C)c(F)c1 (stereo not drawn) [Compound 1283, 9-(4-(1-amino-3-methylbutan-2-yl)-3-fluorophenyl)-8-methoxy-6-methylthieno[2,3-c]quinolin-4(5H)-one hydrochloride] | 530 | –
74 | 110 | 47 | 20 | Cc1cc(O)c(-c2ccc(C(CN)C(C)C)c(F)c2)c2c1[nH]c(=O)c1sccc12 (stereo not drawn) [Compound 1288, 9-(4-(1-amino-3-methylbutan-2-yl)-3-fluorophenyl)-8-hydroxy-6-methylthieno[2,3-c]quinolin-4(5H)-one] | 140 | –
